biological target: T1, bromodomain of BRD9 (GST-BRD9 aa 130-259) / H3 K9/14/18/23Ac(1-28) peptide (Homo sapiens, UniProt Q9H8M2); test: BRD9-H3 tetra-acetylated Peptide Inhibition AlphaScreen; assay type: binding
T1 construct: The protein corresponding to amino acids 130-259 that contains the bromodomain of BRD9; made in house; host or cells: E. coli
T1 sequence (Q9H8M2 130-259): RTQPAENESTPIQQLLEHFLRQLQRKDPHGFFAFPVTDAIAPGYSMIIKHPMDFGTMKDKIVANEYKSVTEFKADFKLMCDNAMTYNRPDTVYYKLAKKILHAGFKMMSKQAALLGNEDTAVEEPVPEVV

| SMILES | IC50 |
| --- | --- |
| COc1cc(-c2cc(C)c(=O)n(C)c2C)c(OC)cc1CN1CCN(C)CC1 [Compound I-131] | 303 nM |
| COc1cc(-c2cc(C)c(=O)n(C)c2C)cc(OC)c1CN1CCN(C)CC1 [Compound I-132] | 322 nM |
| COc1cc(-c2cc(C)c(=O)n(C)c2C)ccc1CN1C[C@@H]2CC1CN2C [Compound I-133] | 387 nM |
| COc1cc(-c2cc(C)c(=O)n(C)c2C)ccc1CN1CC(OC)C1 [Compound I-134] | 394 nM |
| Cc1cc(-c2cc(C)c(=O)n(C)c2C)ccc1C1(N2CCN(C)CC2)CC1 [Compound I-135] | 851 nM |
| Cc1cc(-c2cc(C)c(=O)n(C)c2C)ccc1C(=O)N1CCN(C)CC1 [Compound I-136] | 1920 nM |
| Cc1c(-c2ccc(CN)cc2)cn(C)c(=O)c1C [Compound I-137, 5-(4-Aminomethyl-phenyl)-1,3,4-trimethyl-1H-pyridin-2-one] | 834 nM |
| Cc1c(-c2ccc([C@H](C)N)cc2)cn(C)c(=O)c1C [Compound I-138] | 1260 nM |
| Cc1c(-c2ccc([C@@H](C)N)cc2)cn(C)c(=O)c1C [Compound I-139] | 1380 nM |
| Cc1cc(-c2ccc(CN)cc2)c(C)n(C)c1=O [Compound I-140] | 880 nM |
| Cc1cc(-c2ccc([C@@H](C)N)cc2)c(C)n(C)c1=O [Compound I-141] | 1860 nM |
| Cc1cc(-c2ccc([C@H](C)N)cc2)c(C)n(C)c1=O [Compound I-142] | 1960 nM |
| COc1cc(-c2cc(C)c(=O)n(C)c2)ccc1COC1CNC1 [Compound I-144] | 26 nM |
| COc1cc(-c2cc(C)c(=O)n(C)c2)cc(OC)c1CNC1CNC1 [Compound I-145] | 32 nM |
| CNC1CN(Cc2c(OC)cc(-c3cc(C)c(=O)n(C)c3)cc2OC)C1 [Compound I-146] | 33 nM |
| COc1cc(S(=O)(=O)N2CCNCC2)c(OC)cc1-c1cc(C)c(=O)n(C)c1 [Compound I-147] | 126 nM |
| COc1cc(-c2cc(C)c(=O)n(C)c2)ccc1S(=O)(=O)N1CCNCC1 [Compound I-148] | 144 nM |
| Cc1cc(-c2ccc(CN3CCNCC3)c(N(C)C)c2)cn(C)c1=O [Compound I-149, 5-(3-Dimethylamino-4-piperazin-1-ylmethyl-phenyl)-1,3-dimethyl-1H-pyridin-2-one] | 160 nM |
| COc1cc(-c2cc(C)c(=O)n(C)c2)c(OC)cc1CN1CCNCC1 [Compound I-150] | 298 nM |
| COc1cc(S(=O)(=O)NC2CNC2)c(OC)cc1-c1cn(C)c(=O)c(C)c1C [Compound I-151] | 26 nM |
| CNCCN(C)S(=O)(=O)c1cc(OC)c(-c2cn(C)c(=O)c(C)c2C)cc1OC [Compound I-152] | 145 nM |
| COc1cc(-c2cc(C)c(=O)n(C)c2C)ccc1COC1CNC1 [Compound I-153] | 29 nM |
| COc1cc(S(=O)(=O)NC2CNC2)c(OC)cc1-c1cc(C)c(=O)n(C)c1C [Compound I-154] | 38 nM |
| COc1cc(-c2cc(C)c(=O)n(C)c2C)c(OC)cc1CN1CCNCC1 [Compound I-156] | 1780 nM |
| COc1cc(-c2cc(C)c(=O)n(C)c2)ccc1CN1CC(Cl)C1 [Compound I-178, 5-[4-(3-Chloro-azetidin-1-ylmethyl)-3-methoxy-phenyl]-1,3-dimethyl-1H-pyridin-2-one] | 38 nM |

Next, values leading:

| IC50 | SMILES |
| --- | --- |
| 128 nM | CNCCN(C)S(=O)(=O)c1cc(OC)c(-c2cc(C)c(=O)n(C)c2C)cc1OC [Compound I-155] |
| 89 nM | CCc1cc(-c2cc(C)c(=O)n(C)c2)cc(OC)c1C(=O)N1CCNCC1 [Compound I-157, 5-[3-Ethyl-5-methoxy-4-(piperazine-1-carbonyl)-phenyl]-1,3-dimethyl-1H-pyridin-2-one] |
| 167 nM | COc1cc(-c2cc(C)c(=O)n(C)c2)cc(C)c1C(=O)N1CCNCC1 [Compound I-159] |
| 550 nM | Cc1cc(C(=O)N2CCNCC2)ccc1-c1cc(C)c(=O)n(C)c1 [Compound I-163] |
| 64 nM | COc1cc(-c2cc(I)c(=O)n(C)c2)ccc1C(=O)N1CCNCC1 [Compound I-164, 3-Iodo-5-[3-methoxy-4-(piperazine-1-carbonyl)-phenyl]-1-methyl-1H-pyridin-2-one] |
| 230 nM | COc1cc(-c2cc(I)c(=O)n(C)c2)ccc1C(=O)N1CCN(C)CC1 [Compound I-166] |
| 41 nM | COc1cc(-c2cn(C)c(=O)c(I)c2C)cc(OC)c1CN(C)C [Compound I-167] |
| 40 nM | COc1cc(-c2cc(I)c(=O)n(C)c2C)cc(OC)c1CN(C)C [Compound I-168] |
| 1320 nM | Cc1cc(-c2ccc(C(=O)N3CCN(C)CC3)c(OC(F)(F)F)c2)cn(C)c1=O [Compound I-177, 1,3-Dimethyl-5-[4-(4-methyl-piperazine-1-carbonyl)-3-trifluoromethoxy-phenyl]-1H-pyridin-2-one] |
| 187 nM | Cc1cc(-c2ccc(CN3CC(O)C3)cc2)cn(C)c1=O [Compound I-179, 5-[4-(3-Hydroxy-azetidin-1-ylmethyl)-phenyl]-1,3-dimethyl-1H-pyridin-2-one] |
| 870 nM | Cc1cc(-c2ccc(CN3CCCC3)cc2)cn(C)c1=O [Compound I-180] |
| 1000 nM | CNCc1ccc(-c2cc(C)c(=O)n(C)c2)cc1 [Compound I-181] |
| 1050 nM | Cc1cc(-c2ccc(CN3CCCCC3)cc2)cn(C)c1=O [Compound I-182] |
| 1320 nM | Cc1cc(-c2ccc(CN3CC4CCC3C4)cc2)cn(C)c1=O (stereo not shown) [Compound I-184] |
| 1550 nM | Cc1cc(-c2ccc(Cn3ccnc3)cc2)cn(C)c1=O [Compound I-185] |
| 967 nM | Cc1cc(-c2cc(C)c(=O)n(C)c2)c(C)cc1CN1CCNCC1 [Compound I-186, 5-(2,5-Dimethyl-4-piperazin-1-ylmethyl-phenyl)-1,3-dimethyl-1H-pyridin-2-one] |
| 4300 nM | Cc1cc(-c2cc(C)c(=O)n(C)c2)c(C)cc1CN1CCN(C)CC1 [Compound I-187] |
| 458 nM | Cc1cc(-c2ccc(CN3CCN(C)CC3)c(O)c2)cn(C)c1=O [Compound I-194, 5-[3-Hydroxy-4-(4-methyl-piperazin-1-ylmethyl)-phenyl]-1,3-dimethyl-1H-pyridin-2-one] |
| 369 nM | COCCOc1cc(-c2cc(C)c(=O)n(C)c2)ccc1CN1CCN(C)CC1 [Compound I-195, 5-[3-(2-Methoxy-ethoxy)-4-(4-methyl-piperazin-1-ylmethyl)-phenyl]-1,3-dimethyl-1H-pyridin-2-one] |
| 1010 nM | Cc1cc(-c2ccc(CN3CCN(C)CC3)c(OC(C)C)c2)cn(C)c1=O [Compound I-196] |
| 468 nM | CCOc1cc(-c2cc(C)c(=O)n(C)c2)ccc1CN1CCN(C)CC1 [Compound I-197, 5-[3-Ethoxy-4-(4-methyl-piperazin-1-ylmethyl)-phenyl]-1,3-dimethyl-1H-pyridin-2-one] |
| 71 nM | COc1cc(-c2cc(C)c(=O)n(C)c2)ccc1CN1CCN(Cc2cccc(N)c2)CC1 [Compound I-198, 5-{4-[4-(3-Amino-benzyl)-piperazin-1-ylmethyl]-3-methoxy-phenyl}-1,3-dimethyl-1H-pyridin-2-one] |
| 55 nM | COc1cc(-c2cc(C)c(=O)n(C)c2)ccc1CN1CCN(Cc2ccc3nc[nH]c3c2)CC1 [Compound I-199] |
| 132 nM | COc1cc(-c2cc(C)c(=O)n(C)c2)ccc1CN1CCN(Cc2cccc(O)c2)CC1 [Compound I-200] |
